We go through 1 compound from PMC8005217, “Unravelling Regioselectivity of Leuconostoc citreum ABK-1 Alternansucrase by Acceptor Site Engineering” (International Journal of Molecular Sciences, 2021).

Holding throughout (assay): DNS reducing sugar assay (total activity)
What all share (format): biochemical
Holding throughout (conditions): 0–368 mM sucrose, 50 mM sodium citrate pH 4.0, 40 °C, read-out: Km or k

Assay [1] has as its target T1, LcALT (truncated Leuconostoc citreum ABK-1 alternansucrase, pETΔ7SH, WT) (Leuconostoc citreum, UniProt A0A2H4A2Q1, W554L, form not given).
T1 construct: gene asr; pET19b via NcoI/XhoI, purified recombinant; exact borders and tags only in cited earlier work
The source says: (§1) DNS reducing sugar assay (total activity) on LcALT (truncated Leuconostoc citreum ABK-1 alternansucrase, pETΔ7SH, WT)

In assay [2] the target is T2, LcALT (truncated Leuconostoc citreum ABK-1 alternansucrase, pETΔ7SH, WT) (Leuconostoc citreum, UniProt A0A2H4A2Q1, W554I, form not given).
T2 construct: gene asr; pET19b via NcoI/XhoI, purified recombinant; exact borders and tags only in cited earlier work
T2 sequence (A0A2H4A2Q1 entry or part of it W554I, form open): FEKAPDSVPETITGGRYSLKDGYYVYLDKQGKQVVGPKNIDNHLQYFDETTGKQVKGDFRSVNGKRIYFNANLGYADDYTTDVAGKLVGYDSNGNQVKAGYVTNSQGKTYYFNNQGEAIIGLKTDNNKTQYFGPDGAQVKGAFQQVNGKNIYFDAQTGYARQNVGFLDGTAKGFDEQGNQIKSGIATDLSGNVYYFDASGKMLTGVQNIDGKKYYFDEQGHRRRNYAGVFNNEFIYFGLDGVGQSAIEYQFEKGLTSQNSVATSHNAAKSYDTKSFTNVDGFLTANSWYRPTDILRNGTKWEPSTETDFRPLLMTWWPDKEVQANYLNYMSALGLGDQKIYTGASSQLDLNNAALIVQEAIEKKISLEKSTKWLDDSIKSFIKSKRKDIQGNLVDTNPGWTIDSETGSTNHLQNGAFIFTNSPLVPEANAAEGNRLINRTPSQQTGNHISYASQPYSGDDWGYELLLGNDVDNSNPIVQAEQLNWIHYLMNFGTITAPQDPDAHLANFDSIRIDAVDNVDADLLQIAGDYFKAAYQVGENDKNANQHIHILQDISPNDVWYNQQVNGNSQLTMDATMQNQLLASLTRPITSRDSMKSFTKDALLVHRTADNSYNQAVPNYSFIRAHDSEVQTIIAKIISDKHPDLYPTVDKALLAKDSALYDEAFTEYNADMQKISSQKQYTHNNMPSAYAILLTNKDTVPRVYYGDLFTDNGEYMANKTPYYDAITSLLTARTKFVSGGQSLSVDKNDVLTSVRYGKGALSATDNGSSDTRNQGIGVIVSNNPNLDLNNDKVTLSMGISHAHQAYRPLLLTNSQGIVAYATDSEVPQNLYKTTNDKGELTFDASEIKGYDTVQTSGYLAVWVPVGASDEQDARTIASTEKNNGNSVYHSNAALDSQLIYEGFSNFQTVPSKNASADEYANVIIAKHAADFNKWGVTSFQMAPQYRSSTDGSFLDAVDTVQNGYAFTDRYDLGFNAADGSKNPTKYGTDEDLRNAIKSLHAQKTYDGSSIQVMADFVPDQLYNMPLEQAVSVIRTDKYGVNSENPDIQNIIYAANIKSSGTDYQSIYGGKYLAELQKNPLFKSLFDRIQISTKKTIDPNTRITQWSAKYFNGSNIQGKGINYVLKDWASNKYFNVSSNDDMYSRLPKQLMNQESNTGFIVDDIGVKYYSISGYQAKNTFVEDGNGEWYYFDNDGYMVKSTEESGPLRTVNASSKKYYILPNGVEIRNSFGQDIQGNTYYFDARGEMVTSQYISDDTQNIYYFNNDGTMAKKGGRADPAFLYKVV
Source text: as §1

The target in assay [3] is T3, LcALT (truncated Leuconostoc citreum ABK-1 alternansucrase, pETΔ7SH, WT) (Leuconostoc citreum, UniProt A0A2H4A2Q1, W554A, form not given).
T3 construct: gene asr; pET19b via NcoI/XhoI, purified recombinant; exact borders and tags only in cited earlier work
T3 sequence (A0A2H4A2Q1 entry or part of it W554A, form open): as the sequence (A0A2H4A2Q1 entry or part of it W554I, form open) above, with I554A counted along it
Source text: as §1

Assay [4] concerns the target T4, LcALT (truncated Leuconostoc citreum ABK-1 alternansucrase, pETΔ7SH, WT) (Leuconostoc citreum, UniProt A0A2H4A2Q1, W554Y, form not given).
T4 construct: gene asr; pET19b via NcoI/XhoI, purified recombinant; exact borders and tags only in cited earlier work
Source text: as §1

The target of assay [5] is T5, LcALT (truncated Leuconostoc citreum ABK-1 alternansucrase, pETΔ7SH, WT) (Leuconostoc citreum, UniProt A0A2H4A2Q1, W554F, form not given).
T5 construct: gene asr; pET19b via NcoI/XhoI, purified recombinant; exact borders and tags only in cited earlier work
T5 sequence (A0A2H4A2Q1 entry or part of it W554F, form open): as the sequence (A0A2H4A2Q1 entry or part of it W554I, form open) above, with I554F counted along it
Source text: as §1

Assay [6] addresses T6, LcALT (truncated Leuconostoc citreum ABK-1 alternansucrase, pETΔ7SH, WT) (Leuconostoc citreum, UniProt A0A2H4A2Q1, W554S, form not given).
T6 construct: gene asr; pET19b via NcoI/XhoI, purified recombinant; exact borders and tags only in cited earlier work
Source text: as §1

T1 sequence (A0A2H4A2Q1 entry or part of it W554L, form open): as the sequence (A0A2H4A2Q1 entry or part of it W554I, form open) above, with I554L counted along it
T6 sequence (A0A2H4A2Q1 entry or part of it W554S, form open): as the sequence (A0A2H4A2Q1 entry or part of it W554I, form open) above, with I554S counted along it
T4 sequence (A0A2H4A2Q1 entry or part of it W554Y, form open): as the sequence (A0A2H4A2Q1 entry or part of it W554I, form open) above, with I554Y counted along it

In the case of `OC[C@H]1O[C@@](CO)(O[C@H]2O[C@H](CO)[C@@H](O)[C@H](O)[C@H]2O)[C@@H](O)[C@@H]1O` [sucrose], the Michaelis constant (Km) worked out at 46.4 ± 6 mM in assay [1]; 53.1 ± 4.6 mM in assay [2]; 43 ± 4.7 mM in assay [3]; 14.2 ± 2 mM in assay [4]; 16.6 ± 2.1 mM in assay [5]; 63.6 ± 8.3 mM in assay [6].

What is called Km is the concentration of substrate that gives half-maximal velocity.
